Results as given in PubChem BioAssay AID248 (DTP/NCI, 2004).
Several values for one entry are separate records, joined by “and”; a condition that tells them apart may be missing. Identical values can stand only once. Inconclusive results and toxic doses are left out. Cut-off read from the data, not from the text of the source: active = T/C of 150% or more; inactive = T/C below 125%.

Test system: L1210 leukemia ip in BDF1 mice, survival T/C
Experiment: NCI In Vivo Anticancer Drug Screen. Data for tumor model L1210 Leukemia (intraperitoneal) in B6D2F1 (BDF1) mice
Details: higher = longer survival
Outline: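 Transplantable tumor model; survival measured in treated vs vehicle control mice. Value = treated/control.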

[1] = endpoint: mean survival time, dose: 100.0 mg/kg/injection, schedule: Q01DX001 (ip), vehicle: saline
[2] = endpoint: mean survival time, dose: 400.0 mg/kg/injection, schedule: Q01DX001 (ip), vehicle: saline
[3] = endpoint: mean survival time, dose: 200.0 mg/kg/injection, schedule: Q01DX001 (ip), vehicle: saline
[4] = endpoint: mean survival time, dose: 100.0 mg/kg/injection, schedule: Q01DX009 (ip), vehicle: Klucel (hydroxypropylcellulose) (HPC)
[5] = endpoint: mean survival time, dose: 100.0 mg/kg/injection, schedule: Q04DX003 (ip), vehicle: Klucel (hydroxypropylcellulose) (HPC)
[6] = endpoint: mean survival time, dose: 200.0 mg/kg/injection, schedule: Q01DX009 (ip), vehicle: Klucel (hydroxypropylcellulose) (HPC)
[7] = endpoint: mean survival time, dose: 200.0 mg/kg/injection, schedule: Q04DX003 (ip), vehicle: Klucel (hydroxypropylcellulose) (HPC)
[8] = endpoint: mean survival time, dose: 400.0 mg/kg/injection, schedule: Q01DX009 (ip), vehicle: Klucel (hydroxypropylcellulose) (HPC)
[9] = endpoint: mean survival time, dose: 400.0 mg/kg/injection, schedule: Q04DX003 (ip), vehicle: Klucel (hydroxypropylcellulose) (HPC)
[10] = endpoint: mean survival time, dose: 100.0 mg/kg/injection, schedule: Q01DX001 (ip), vehicle: carboxymethylcellulose (CMC)
[11] = endpoint: mean survival time, dose: 200.0 mg/kg/injection, schedule: Q01DX001 (ip), vehicle: carboxymethylcellulose (CMC)
[12] = endpoint: mean survival time, dose: 400.0 mg/kg/injection, schedule: Q01DX001 (ip), vehicle: carboxymethylcellulose (CMC)
[13] = endpoint: mean survival time, dose: 100.0 mg/kg/injection, schedule: Q04DX003 (ip), vehicle: saline with Tween-80
[14] = endpoint: mean survival time, dose: 200.0 mg/kg/injection, schedule: Q04DX003 (ip), vehicle: saline with Tween-80
[15] = endpoint: mean survival time, dose: 100.0 mg/kg/injection, schedule: Q04DX003 (ip), vehicle: saline
[16] = endpoint: mean survival time, dose: 400.0 mg/kg/injection, schedule: Q04DX003 (ip), vehicle: saline

Measured: T/C

Cc1nc2nc(N)nc(N)c2nc1CN(C)c1ccc(C(=O)NC(CCC(=O)O)C(=O)O)cc1 (stereo unspecified)
inactive: endpoint: median survival time, dose: 0.39 mg/kg/injection, schedule: Q01DX009 (ip), vehicle: other 100 % of control | endpoint: median survival time, dose: 0.65 mg/kg/injection, schedule: Q01DX009 (ip), vehicle: other 100 % of control | endpoint: median survival time, dose: 1.08 mg/kg/injection, schedule: Q01DX009 (ip), vehicle: other 100 % of control | endpoint: median survival time, dose: 1.8 mg/kg/injection, schedule: Q01DX009 (ip), vehicle: other 100 % of control and 90 % of control | endpoint: median survival time, dose: 5.0 mg/kg/injection, schedule: Q01DX009 (ip), vehicle: other 90 % of control | endpoint: median survival time, dose: 14.0 mg/kg/injection, schedule: Q01DX009 (ip), vehicle: other 100 % of control | endpoint: median survival time, dose: 39.0 mg/kg/injection, schedule: Q01DX009 (ip), vehicle: other 100 % of control | endpoint: median survival time, dose: 108.0 mg/kg/injection, schedule: Q01DX009 (ip), vehicle: other 100 % of control | endpoint: median survival time, dose: 180.0 mg/kg/injection, schedule: Q01DX009 (ip), vehicle: other 110 % of control | endpoint: median survival time, dose: 300.0 mg/kg/injection, schedule: Q01DX009 (ip), vehicle: other 100 % of control

COC(=O)C1=CO[C@@H](C)[C@@H]2Cn3ccc4c5ccccc5nc-4c3C[C@H]12
inactive: [1] 109 % of control | [2] 95 % of control

O=C(CCCC(=O)N/N=C/c1ccc(O)cc1O)N/N=C\c1ccc(O)cc1O
inactive: endpoint: mean survival time, dose: 50.0 mg/kg/injection, schedule: Q01DX001 (ip), vehicle: saline 90 % of control | [1] 96 % of control | [3] 96 % of control | [2] 93 % of control

CC1OC(O[C@@H]2C=C3CC[C@@H]4[C@H](CC[C@]5(C)[C@@H](c6ccc(=O)oc6)CC[C@]45O)[C@@]3(C)CC2)C(O)C(O)C1O (stereo partly specified)
inactive: endpoint: mean survival time, dose: 10.0 mg/kg/injection, schedule: Q01DX001 (ip), vehicle: saline 101 % of control

COc1ccc(C(O)c2c(CN(C)C)c3ccccc3n2C)cc1 (stereo unspecified)
inactive: endpoint: mean survival time, dose: 100.0 mg/kg/injection, schedule: Q04DX002 (ip), vehicle: other 106 % of control

O=C(O)c1c(O)c2cc(Cl)ccc2oc1=O
inactive: [1] 98 % of control | [2] 98 % of control

CCN(c1ccccc1C)S(=O)(=O)c1ccccc1
inactive: [4] 109 % of control | [5] 103 % of control | [6] 101 % of control | [7] 93 % of control | [8] 87 % of control | [9] 95 % of control

S=P(NCCCCCNP(=S)(N1CC1)N1CC1)(N1CC1)N1CC1
inactive: [10] 91 % of control

O=P1(N(CCF)CCCl)NCCCO1 (stereo unspecified)
inactive: endpoint: mean survival time, dose: 10.0 mg/kg/injection, schedule: Q01DX Z (ip), vehicle: other 94 % of control | endpoint: mean survival time, dose: 30.0 mg/kg/injection, schedule: Q01DX Z (ip), vehicle: other 102 % of control

N#Cc1cccc(C(=O)Cl)c1
inactive: endpoint: mean survival time, dose: 25.0 mg/kg/injection, schedule: Q01DX009 (ip), vehicle: carboxymethylcellulose (CMC) 95 % of control and 96 % of control | endpoint: mean survival time, dose: 50.0 mg/kg/injection, schedule: Q01DX009 (ip), vehicle: carboxymethylcellulose (CMC) 100 % of control and 89 % of control | [10] 92 % of control | endpoint: mean survival time, dose: 100.0 mg/kg/injection, schedule: Q01DX009 (ip), vehicle: carboxymethylcellulose (CMC) 92 % of control and 95 % of control and 96 % of control | endpoint: mean survival time, dose: 100.0 mg/kg/injection, schedule: Q04DX002 (ip), vehicle: carboxymethylcellulose (CMC) 95 % of control and 89 % of control | endpoint: mean survival time, dose: 100.0 mg/kg/injection, schedule: Q04DX003 (ip), vehicle: carboxymethylcellulose (CMC) 96 % of control and 100 % of control | [11] 92 % of control and 98 % of control | endpoint: mean survival time, dose: 200.0 mg/kg/injection, schedule: Q04DX002 (ip), vehicle: carboxymethylcellulose (CMC) 95 % of control | endpoint: mean survival time, dose: 200.0 mg/kg/injection, schedule: Q04DX003 (ip), vehicle: carboxymethylcellulose (CMC) 96 % of control and 100 % of control | endpoint: mean survival time, dose: 400.0 mg/kg/injection, schedule: Q04DX003 (ip), vehicle: carboxymethylcellulose (CMC) 91 % of control

S=P1(c2ccccc2)Nc2ccc(Cl)cc2N1 (stereo unspecified)
inactive: endpoint: mean survival time, dose: 75.0 mg/kg/injection, schedule: Q04DX002 (ip), vehicle: gum acacia 104 % of control | endpoint: mean survival time, dose: 150.0 mg/kg/injection, schedule: Q04DX002 (ip), vehicle: gum acacia 104 % of control | endpoint: mean survival time, dose: 300.0 mg/kg/injection, schedule: Q04DX002 (ip), vehicle: gum acacia 101 % of control

COc1ccc(CN2CCCN(Cc3ccc(OC)cc3OC)C2c2cc(OC)ccc2OC)c(OC)c1
inactive: endpoint: mean survival time, dose: 50.0 mg/kg/injection, schedule: Q01DX001 (ip), vehicle: carboxymethylcellulose (CMC) 114 % of control | [10] 102 % of control | [11] 102 % of control | [12] 108 % of control

Nc1ccn(CC(=O)c2cccs2)c(=O)n1
inactive: endpoint: mean survival time, dose: 25.0 mg/kg/injection, schedule: Q01DX009 (ip), vehicle: saline with Tween-80 93 % of control | endpoint: mean survival time, dose: 50.0 mg/kg/injection, schedule: Q01DX009 (ip), vehicle: saline with Tween-80 98 % of control | endpoint: mean survival time, dose: 100.0 mg/kg/injection, schedule: Q01DX009 (ip), vehicle: saline with Tween-80 100 % of control and 103 % of control | [13] 94 % of control | [14] 110 % of control

ClCCCCCCCCCCCl
inactive: [4] 94 % of control and 97 % of control | [5] 97 % of control | [6] 94 % of control and 102 % of control | [7] 92 % of control | [8] 92 % of control | [9] 99 % of control

COC(=O)CCC(=O)Nc1cccc2cnccc12
inactive: [15] 102 % of control | [16] 102 % of control

CC1(C)CC(NC(=O)NCCCl)CC(C)(C)N1
inactive: endpoint: mean survival time, dose: 12.5 mg/kg/injection, schedule: Q01DX009 (ip), vehicle: saline 98 % of control | endpoint: mean survival time, dose: 12.5 mg/kg/injection, schedule: Q04DX003 (ip), vehicle: saline 101 % of control | endpoint: mean survival time, dose: 25.0 mg/kg/injection, schedule: Q01DX009 (ip), vehicle: saline 95 % of control | endpoint: mean survival time, dose: 25.0 mg/kg/injection, schedule: Q04DX003 (ip), vehicle: saline 114 % of control | endpoint: mean survival time, dose: 50.0 mg/kg/injection, schedule: Q04DX003 (ip), vehicle: saline 104 % of control

CCOP(=S)(NN=C1CCCC1)OCC
inactive: [1] 95 % of control | [3] 95 % of control

O=C(O)CC(CC(=O)O)n1cccc1
inactive: endpoint: mean survival time, dose: 75.0 mg/kg/injection, schedule: Q01DX001 (ip), vehicle: acetone 96 % of control | endpoint: mean survival time, dose: 150.0 mg/kg/injection, schedule: Q01DX001 (ip), vehicle: acetone 91 % of control | endpoint: mean survival time, dose: 300.0 mg/kg/injection, schedule: Q01DX001 (ip), vehicle: acetone 94 % of control

COC(=O)c1ccccc1NC(=O)Nc1cc(Cl)ccc1OC
inactive: [4] 89 % of control | [5] 106 % of control | [6] 103 % of control | [7] 90 % of control | [8] 107 % of control | [9] 95 % of control

Cc1ccc([N+](=O)[O-])cc1NC(=O)NCCCl
inactive: [13] 90 % of control | [14] 90 % of control | endpoint: mean survival time, dose: 400.0 mg/kg/injection, schedule: Q04DX003 (ip), vehicle: saline with Tween-80 92 % of control

O=C(NCC[N+](=O)[O-])c1ccccc1
inactive: endpoint: mean survival time, dose: 50.0 mg/kg/injection, schedule: Q01DX009 (ip), vehicle: saline 97 % of control | endpoint: mean survival time, dose: 100.0 mg/kg/injection, schedule: Q01DX009 (ip), vehicle: saline 93 % of control | [15] 92 % of control | endpoint: mean survival time, dose: 200.0 mg/kg/injection, schedule: Q01DX009 (ip), vehicle: saline 95 % of control | endpoint: mean survival time, dose: 200.0 mg/kg/injection, schedule: Q04DX003 (ip), vehicle: saline 96 % of control | [16] 100 % of control

O=NN(Cc1ccc(Cl)cc1)C(=O)NCc1ccc(Cl)cc1
inactive: endpoint: mean survival time, dose: 400.0 mg/kg/injection, schedule: Q01DX Z (ip), vehicle: carboxymethylcellulose (CMC) 104 % of control

Nc1c(F)c(F)c(N=Nc2ccccc2)c(F)c1F
inactive: [10] 95 % of control | [11] 96 % of control | [12] 95 % of control

NCCOc1ccccn1
inactive: endpoint: mean survival time, dose: 100.0 mg/kg/injection, schedule: Q04DX002 (ip), vehicle: saline 111 % of control | endpoint: mean survival time, dose: 200.0 mg/kg/injection, schedule: Q04DX002 (ip), vehicle: saline 101 % of control | endpoint: mean survival time, dose: 400.0 mg/kg/injection, schedule: Q04DX002 (ip), vehicle: saline 101 % of control
